Drawing on patent US8871756B2 (Hoffmann-La Roche Inc., priority 2011, dated 2014), this text covers EC50 for 13 molecules.

As usually defined, the EC50 is the concentration at which the effect is half-maximal.

The assay deals with RSV Long strain. Put plainly: Viral cytopathic effect (CPE) assay, anti-RSV activity. It counts as cell-based, Respiratory Syncytial Virus. To be noted: RSV Long strain (ATCC), cell viability after 6 days, Cell Counting kit-8. How it is done: Viral cytopathic effect (CPE) assay: To measure anti-RSV activity of compounds, 96-well plates are seeded with 6×10^3 cells per well in Dulbecco's modified Eagle's medium (DMEM) containing 10% fetal bovine serum (FBS). Cells are infected the next day with sufficient RSV Long strain (ATCC) to produce an approximately 80-90% cytopathic effect after 6 days, in the presence of serial half-log diluted compound in a total volume of 200 μL per well. The viability of cells is assessed after 6 days using Cell Counting kit-8 (Dojindo Molecular Technologies). The absorbance at 450 nm and referenced at 630 nm is measured to determine 50% effective concentration (EC50).
The compounds of the present invention were tested for their anti-RSV activity, and the activation as described herein. The Examples were tested in the above assay and found to have EC50 of about 0.0001 μM to about 10 μM.
(In general: Cytopathic effects are the visible damage that an infection or toxin causes in cultured cells.)

Where [1] appears, read: human respiratory syncytial virus, 144 h.

In turn, `Cc1ccc2nc(N3CCC(F)(F)c4ccccc4C3)cc(NCCN3CCNCC3)c2c1` [Example 110-7, 2-(5,5-Difluoro-1,3,4,5-tetrahydro-2H-2-benzazepin-2-yl)-6-methyl-N-[2-(piperazin-1-yl)ethyl]quinolin-4-amine] came in with a concentration for a half-maximal effect (EC50) under setting [1] of 1.18 µM. That is a single-digit micromolar value.
In turn, `Cc1ccc2nc(N3CCS(=O)(=O)c4ccccc4C3)cc(NCCC3(N)COC3)c2c1` [Example 2-7, N-[2-(3-Aminooxetan-3-yl)ethyl]-2-(1,1-dioxido-2,3-dihydro-1,4-benzothiazepin-4(5H)-yl)-6-methylquinolin-4-amine] returned an EC50 under setting [1] of 0.234 µM.
Regarding `NC1CCN(c2cc(N3CCS(=O)(=O)c4ccccc4C3)nc3ccncc23)C1` (stereo not shown) [Example 9-28, 1-[2-(1,1-Dioxido-2,3-dihydro-1,4-benzothiazepin-4(5H)-yl)-1,6-naphthyridin-4-yl]pyrrolidin-3-amine], it took 0.003 µM to reach a half-maximal effect under setting [1] (EC50).
For `OCC(O)Cc1cc(N2CCCc3ccccc3C2)nc2ccc(Cl)cc12` (stereo not shown) [Example 130-2, 3-[6-Chloro-2-(1,3,4,5-tetrahydro-2H-2-benzazepin-2-yl)quinolin-4-yl]propane-1,2-diol], under setting [1], the EC50 was found to be 7.27 µM.
The molecule `Cc1ccc2nc(N3CC[S+]([O-])c4ccccc4C3)cc(NCC3(N)COC3)c2c1` (single isomer, unassigned; (-)) [Example 18-3, (−)-N-[(3-Aminooxetan-3-yl)methyl]-6-methyl-2-[1-oxido-2,3-dihydro-1,4-benzothiazepin-4(5H)-yl]quinolin-4-amine] showed an EC50 of 0.014 µM.
For `Cc1ccc2nc(N3CCC(F)(F)c4ccccc4C3)cc(NCCOCCN)c2c1` [Example 110-2, N-[2-(2-Aminoethoxy)ethyl]-2-(5,5-difluoro-1,3,4,5-tetrahydro-2H-2-benzazepin-2-yl)-6-methylquinolin-4-amine], the midpoint of the response under setting [1], the EC50, lay at 2.61 µM.
As for `N#Cc1ccc2nc(N3CCS(=O)(=O)c4ccccc4C3)cc(NCCCN)c2c1` [Example 52, 4-[(3-Aminopropyl)amino]-2-(1,1-dioxido-2,3-dihydro-1,4-benzothiazepin-4(5H)-yl)quinoline-6-carbonitrile], the midpoint of the response under setting [1], the EC50, lay at 0.419 µM.
The same measure, in the same setting: as for `Cc1ccc2c(c1)S(=O)(=O)CCN(c1cc(NCC3(CN)COC3)c3cc(C)ccc3n1)C2` [Example 3-8, N-{[3-(Aminomethyl)oxetan-3-yl]methyl}-6-methyl-2-(8-methyl-1,1-dioxido-2,3-dihydro-1,4-benzothiazepin-4(5H)-yl)quinolin-4-amine], the figure is 0.002 µM; as for `NCC1(CNc2cc(N3CCS(=O)(=O)c4ccccc4C3)nc3ccc(Cl)cc23)COC1` [Example 3-51, N-{[3-(Aminomethyl)oxetan-3-yl]methyl}-6-chloro-2-(1,1-dioxido-2,3-dihydro-1,4-benzothiazepin-4(5H)-yl)quinolin-4-amine], 0.004 µM; as for `Cc1ccc2nc(N3CCS(=O)(=O)c4ccccc4C3)cc(N3C[C@@H]4[C@@H](N)[C@@H]4C3)c2c1` [Example 19-2, (1R,5S,6S)-3-[2-(1,1-Dioxido-2,3-dihydro-1,4-benzothiazepin-4(5H)-yl)-6-methylquinolin-4-yl]-3-azabicyclo[3.1.0]hexan-6-amine], 0.011 µM.
The same measure, in the same setting: next, `Cc1ccc2nc(N3CCC(F)(F)c4ccccc4C3)cc(NCC(O)CO)c2c1` (stereo not shown) [Example 110-5, 3-{[2-(5,5-Difluoro-1,3,4,5-tetrahydro-2H-2-benzazepin-2-yl)-6-methylquinolin-4-yl]amino}propane-1,2-diol]: 1.66 µM; `Cc1ccc2nc(N3CCS(=O)(=O)c4ccccc4C3)cc(N(CCO)CCO)c2c1` [Example 11-2, 2,2′-{[2-(1,1-Dioxido-2,3-dihydro-1,4-benzothiazepin-4(5H)-yl)-6-methylquinolin-4-yl]imino}diethanol]: 7.02 µM; `NCC1(CNc2nc(N3CC[S+]([O-])c4ccccc4C3)nc3ccc(CO)cc23)COC1` (stereo not shown) [Example 109-1, [4-({[3-(Aminomethyl)oxetan-3-yl]methyl}amino)-2-(1-oxido-2,3-dihydro-1,4-benzothiazepin-4(5H)-yl)quinazolin-6-yl]methanol]: 0.00088 µM.
